In series [1] the test system is Mycobacterium tuberculosis. In words: Antitubercular activity against Mycobacterium tuberculosis assessed as inhibition of bacterial growth. Type of series: functional.
Series [2] relates to Mycobacterium tuberculosis. In words: Antitubercular activity against Mycobacterium tuberculosis H37RvMA assessed as inhibition of bacterial growth by Alamar blue dye based broth microdilution method. Type of series: functional. In general terms: Alamar Blue is a resazurin reagent that responds to reducing activity.
In series [3] the target is T1, Cytochrome P450 3A4 (Homo sapiens, UniProt P08684). Put plainly: Inhibition of CYP3A4 (unknown origin) using testosterone as substrate. Type of series: ADME.
Series [4] relates to Mycobacterium tuberculosis. Put plainly: Antitubercular activity against Mycobacterium tuberculosis H37Ra assessed as inhibition of bacterial growth. Type of series: functional.
Series [5] can be described thus: Clearance in human liver microsomes. Type of series: ADME, Microsome. In general terms: Microsomes from liver hold many membrane-bound enzymes, among them those of drug oxidation.
In series [6] the target is Cytochrome P450 2D6 (Homo sapiens, UniProt P10635). Put plainly: Inhibition of CYP2D6 (unknown origin). Type of series: ADME.
A short description of series [7]: Oral bioavailability in mouse. Type of series: ADME, organism-based. The conditions noted are these: in vivo.
Series [8] can be described thus: Lipophilicity, logD of the compound measured at pH 7.4. The conditions noted are these: buffer. Type of series: physicochemical.
Series [9] is described as follows: Clearance in mouse. The conditions noted are these: in vivo. Type of series: ADME, organism-based.
Series [10] has as its target T1, Cytochrome P450 3A4. In words: Inhibition of CYP3A4 (unknown origin). Type of series: ADME.
A short description of series [11]: Cytotoxicity against human primary hepatocytes in absence of serum. Type of series: toxicity, cell-based, Hepatocyte.
Series [12] has as its target T2, Cytochrome P450 2C8 (Homo sapiens, UniProt P10632).
T2 sequence (P10632 whole entry): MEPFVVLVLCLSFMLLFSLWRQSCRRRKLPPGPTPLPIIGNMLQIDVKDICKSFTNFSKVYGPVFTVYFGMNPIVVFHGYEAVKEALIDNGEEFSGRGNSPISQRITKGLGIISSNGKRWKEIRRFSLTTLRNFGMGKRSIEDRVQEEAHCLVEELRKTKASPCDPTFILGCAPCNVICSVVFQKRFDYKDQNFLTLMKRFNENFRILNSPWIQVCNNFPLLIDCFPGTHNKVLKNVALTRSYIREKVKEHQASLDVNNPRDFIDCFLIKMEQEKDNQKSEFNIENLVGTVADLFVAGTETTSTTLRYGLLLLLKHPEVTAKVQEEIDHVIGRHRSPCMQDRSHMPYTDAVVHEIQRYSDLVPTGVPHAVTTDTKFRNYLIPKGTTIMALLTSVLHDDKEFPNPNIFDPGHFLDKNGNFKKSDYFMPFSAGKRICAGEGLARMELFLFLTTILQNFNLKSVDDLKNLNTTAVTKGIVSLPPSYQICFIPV
Put plainly: Inhibition of CYP2C8 (unknown origin). Type of series: ADME.

In series [13] the target is Inosine-5'-monophosphate dehydrogenase (Mycobacterium tuberculosis (strain ATCC 25618 / H37Rv), UniProt P9WKI7). In words: Inhibition of Mycobacterium tuberculosis GuaB.
For series [14], the target named is T3, Cytochrome P450 1A2 (Homo sapiens, UniProt P05177).
T3 sequence (P05177 whole entry): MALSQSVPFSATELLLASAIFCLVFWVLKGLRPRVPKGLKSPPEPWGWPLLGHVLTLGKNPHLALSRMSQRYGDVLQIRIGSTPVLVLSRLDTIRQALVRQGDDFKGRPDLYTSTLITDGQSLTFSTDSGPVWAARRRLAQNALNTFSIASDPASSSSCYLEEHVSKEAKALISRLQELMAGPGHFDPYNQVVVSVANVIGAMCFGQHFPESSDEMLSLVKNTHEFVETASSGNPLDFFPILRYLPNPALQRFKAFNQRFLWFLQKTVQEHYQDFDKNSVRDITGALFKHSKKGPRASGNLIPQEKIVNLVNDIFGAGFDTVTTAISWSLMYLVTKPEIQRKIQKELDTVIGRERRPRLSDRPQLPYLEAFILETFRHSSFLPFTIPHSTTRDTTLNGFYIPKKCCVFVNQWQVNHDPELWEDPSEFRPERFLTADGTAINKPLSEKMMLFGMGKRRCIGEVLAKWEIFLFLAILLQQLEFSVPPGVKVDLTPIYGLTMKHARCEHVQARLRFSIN
Put plainly: Inhibition of CYP1A2 (unknown origin). Type of series: ADME.

Series [15] concerns the target hERG (Homo sapiens, UniProt Q12809). Put plainly: Inhibition of hERG at 10 uM relative to control. Type of series: toxicity. Background: The hERG channel carries a current that helps repolarise heart muscle cells.
Series [16] is described as follows: Cytotoxicity against human primary hepatocytes in presence of serum. Type of series: toxicity, cell-based, Hepatocyte.
Series [17] relates to IMPDH. Put plainly: Inhibition of human IMPDH. Type of series: toxicity.
Series [18] has as its target Cytochrome P450 2C9 (Homo sapiens, UniProt P11712). In words: Inhibition of CYP2C9 (unknown origin). Type of series: ADME.
Series [19] relates to Mycobacterium tuberculosis. In words: Antitubercular activity against Mycobacterium tuberculosis H37Rv assessed as inhibition of bacterial growth. Type of series: functional.
For series [20], the system named is Mycobacterium tuberculosis. Put plainly: Antitubercular activity against Mycobacterium tuberculosis ATCC 27294 assessed as inhibition of bacterial growth measured after 1 week by broth microdilution method. Type of series: functional. The settings on record: ATCC 27294, 168 h, time 1 weeks.

In brackets after ≈: the same amount, converted by molar mass.

T1 sequence (P08684 whole entry): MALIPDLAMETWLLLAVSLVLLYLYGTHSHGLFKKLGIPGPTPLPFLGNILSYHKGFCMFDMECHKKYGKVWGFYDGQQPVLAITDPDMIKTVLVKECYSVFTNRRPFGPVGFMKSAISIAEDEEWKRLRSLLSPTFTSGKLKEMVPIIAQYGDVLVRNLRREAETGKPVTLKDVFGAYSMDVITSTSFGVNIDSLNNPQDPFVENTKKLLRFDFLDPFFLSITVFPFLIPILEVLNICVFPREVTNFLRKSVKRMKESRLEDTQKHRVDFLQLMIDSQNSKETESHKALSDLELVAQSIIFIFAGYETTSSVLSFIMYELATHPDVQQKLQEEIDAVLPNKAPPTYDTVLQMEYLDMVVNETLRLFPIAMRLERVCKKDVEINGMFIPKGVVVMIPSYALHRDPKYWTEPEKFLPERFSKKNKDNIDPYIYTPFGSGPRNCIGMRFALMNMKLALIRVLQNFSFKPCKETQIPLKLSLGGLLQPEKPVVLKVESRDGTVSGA
Sequence of hERG (Q12809 whole entry): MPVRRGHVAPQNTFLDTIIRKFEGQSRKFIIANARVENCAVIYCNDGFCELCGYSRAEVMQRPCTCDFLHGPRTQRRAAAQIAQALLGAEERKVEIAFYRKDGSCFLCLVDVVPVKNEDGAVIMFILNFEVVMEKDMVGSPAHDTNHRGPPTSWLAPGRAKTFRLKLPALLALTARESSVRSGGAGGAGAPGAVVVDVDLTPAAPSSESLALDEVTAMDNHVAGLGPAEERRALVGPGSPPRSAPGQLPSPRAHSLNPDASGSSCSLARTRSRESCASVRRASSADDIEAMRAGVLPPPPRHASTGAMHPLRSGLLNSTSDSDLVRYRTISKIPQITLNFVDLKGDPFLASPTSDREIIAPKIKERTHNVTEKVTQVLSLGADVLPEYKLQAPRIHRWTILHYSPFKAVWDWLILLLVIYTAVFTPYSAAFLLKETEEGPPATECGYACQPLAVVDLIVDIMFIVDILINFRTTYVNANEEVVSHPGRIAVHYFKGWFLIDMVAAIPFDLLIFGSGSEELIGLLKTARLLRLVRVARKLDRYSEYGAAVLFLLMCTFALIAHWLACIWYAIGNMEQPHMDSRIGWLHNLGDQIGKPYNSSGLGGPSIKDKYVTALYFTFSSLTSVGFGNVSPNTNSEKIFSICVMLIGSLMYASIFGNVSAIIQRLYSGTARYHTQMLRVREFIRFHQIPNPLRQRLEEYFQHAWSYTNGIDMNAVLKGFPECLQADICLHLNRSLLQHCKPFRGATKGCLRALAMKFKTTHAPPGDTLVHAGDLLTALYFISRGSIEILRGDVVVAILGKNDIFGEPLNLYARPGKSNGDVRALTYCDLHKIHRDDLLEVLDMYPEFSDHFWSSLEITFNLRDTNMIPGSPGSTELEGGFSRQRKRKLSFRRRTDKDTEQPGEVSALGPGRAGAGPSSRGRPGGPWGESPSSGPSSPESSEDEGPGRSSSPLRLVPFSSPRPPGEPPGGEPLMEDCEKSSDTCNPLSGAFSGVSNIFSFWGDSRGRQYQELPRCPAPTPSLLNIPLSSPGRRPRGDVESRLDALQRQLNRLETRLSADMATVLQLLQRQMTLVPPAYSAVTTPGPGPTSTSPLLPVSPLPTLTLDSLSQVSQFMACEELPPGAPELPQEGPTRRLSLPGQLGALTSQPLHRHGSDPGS
Sequence of Cytochrome P450 2D6 (P10635 whole entry): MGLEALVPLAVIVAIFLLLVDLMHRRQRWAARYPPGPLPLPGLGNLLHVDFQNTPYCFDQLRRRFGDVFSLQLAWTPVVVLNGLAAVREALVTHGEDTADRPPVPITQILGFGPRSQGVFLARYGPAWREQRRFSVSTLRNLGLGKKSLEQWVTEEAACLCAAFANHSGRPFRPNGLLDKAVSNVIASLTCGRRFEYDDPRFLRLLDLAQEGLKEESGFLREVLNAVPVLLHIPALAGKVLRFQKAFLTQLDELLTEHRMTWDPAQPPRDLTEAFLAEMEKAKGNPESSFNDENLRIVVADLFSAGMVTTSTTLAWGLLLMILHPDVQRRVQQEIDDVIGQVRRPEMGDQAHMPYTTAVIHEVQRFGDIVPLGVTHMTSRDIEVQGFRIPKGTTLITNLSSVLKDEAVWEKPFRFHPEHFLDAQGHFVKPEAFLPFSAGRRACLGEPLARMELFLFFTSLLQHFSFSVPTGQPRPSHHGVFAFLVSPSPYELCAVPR
Sequence of Inosine-5'-monophosphate dehydrogenase (P9WKI7 whole entry): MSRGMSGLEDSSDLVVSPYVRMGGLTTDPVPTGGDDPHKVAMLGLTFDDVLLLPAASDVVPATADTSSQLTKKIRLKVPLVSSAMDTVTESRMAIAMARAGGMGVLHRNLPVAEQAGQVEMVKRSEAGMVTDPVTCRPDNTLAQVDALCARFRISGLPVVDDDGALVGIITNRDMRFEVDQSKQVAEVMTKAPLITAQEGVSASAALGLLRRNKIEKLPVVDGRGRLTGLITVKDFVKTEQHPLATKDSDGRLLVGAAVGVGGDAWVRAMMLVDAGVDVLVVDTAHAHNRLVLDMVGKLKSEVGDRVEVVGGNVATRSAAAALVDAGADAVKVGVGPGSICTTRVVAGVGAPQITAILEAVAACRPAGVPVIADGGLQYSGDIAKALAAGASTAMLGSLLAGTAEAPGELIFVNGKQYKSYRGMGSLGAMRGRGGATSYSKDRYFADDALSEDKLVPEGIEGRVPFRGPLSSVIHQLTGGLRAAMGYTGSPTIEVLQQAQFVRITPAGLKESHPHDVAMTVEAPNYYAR
Sequence of Cytochrome P450 2C9 (P11712 whole entry): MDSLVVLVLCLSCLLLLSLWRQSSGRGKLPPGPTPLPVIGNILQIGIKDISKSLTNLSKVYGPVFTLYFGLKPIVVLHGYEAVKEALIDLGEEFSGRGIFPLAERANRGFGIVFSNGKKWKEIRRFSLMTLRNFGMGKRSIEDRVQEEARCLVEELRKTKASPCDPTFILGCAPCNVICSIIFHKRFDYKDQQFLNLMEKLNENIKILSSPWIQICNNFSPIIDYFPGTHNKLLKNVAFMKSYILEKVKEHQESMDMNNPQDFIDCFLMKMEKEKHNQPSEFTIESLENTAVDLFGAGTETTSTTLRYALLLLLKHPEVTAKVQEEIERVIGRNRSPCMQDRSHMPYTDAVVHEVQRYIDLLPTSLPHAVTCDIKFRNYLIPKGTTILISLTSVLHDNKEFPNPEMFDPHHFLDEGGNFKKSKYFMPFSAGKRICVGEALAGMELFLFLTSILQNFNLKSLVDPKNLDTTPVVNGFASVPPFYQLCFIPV

In general, MIC refers to the smallest concentration in the dilution series that meets the test's criterion for growth inhibition. As for `Cc1n[nH]c(C)c1S(=O)(=O)Nc1ccc2c[nH]nc2c1`, the MIC in series [1] is 2 µM (≈ 0.583 µg/mL).

In the case of `O=C(C1CCCCC1)N1CCN(S(=O)(=O)c2cccc3cnccc23)CC1`, the MIC in [2] came out at 2 µM (≈ 0.775 µg/mL).

Broadly, the IC50 is the concentration that inhibits the measured activity by half. In turn, `C[C@@H](Oc1ccc(-c2ccn[nH]2)cc1)c1cncc(-c2nc(Cl)c[nH]2)c1` showed an IC50 in [3] of 0.24 µM. Also, in series [4], the MIC was 0.11 µM (≈ 0.0402 µg/mL). For the same compound, the CLhep predicted in [5] is 12 mL/min/kg.

A word on the bioavailability: it is the share of a dose that reaches the circulation, judged against a reference dose that is usually intravenous. Higher therefore signals much systemic uptake. By logD is commonly meant lipophilicity at a set pH, counting ionised and neutral species. A higher logD goes with a more lipophilic compound. Broadly, the clearance is the rate of elimination divided by the concentration. The inhibition is the drop in the measured response relative to a control, in per cent. A higher inhibition goes with a strong effect. Regarding `C[C@@H](Oc1ccc2c(=O)cc3n(c2c1)CCOC3)c1cc(-n2ccc(Cl)n2)cnn1`, the IC50 in series [6] is > 10 µM; in series [10] it was > 10 µM; in series [11], > 100 µM; in [12] it was > 10 µM; in series [13], 0.0017 µM; in [3], > 10 µM. Further, the figures for the IC50 in series [14], in [16] and in series [17] were > 10 µM, > 100 µM and > 50 µM, respectively. This compound registered a bioavailability in [7] of 5.2%. Also, in [8], the logD is 2.3. Also, the clearance in series [9] turned out to be 35 mL/min/kg. For the same compound, the MIC in [4] came out at 0.26 µM (≈ 0.11 µg/mL). Besides, the inhibition at 10 µM in series [15] is 28%. Also, the CLhep predicted in series [5] is 5.3 mL/min/kg.

For `C[C@@H](Oc1ccc2ncc3c(c2c1)CCOC3)c1cncc(-c2nc(Cl)c[nH]2)c1`, the IC50 in series [6] is < 10 µM; in series [10] it was < 10 µM; in series [12], < 10 µM; in series [18], < 10 µM; in [3], 0.57 µM; in series [14] it was < 10 µM. Also, the MIC in [4] was < 0.003 µM; in series [19], 0.039 µM (≈ 0.0159 µg/mL). Besides, in [5], the CLhep predicted was 19 mL/min/kg.

`C[C@@H](Oc1ccc2c(=O)cc3n(c2c1)CCOC3)c1cncc(-c2nc(C(F)(F)F)c[nH]2)c1` gave a logD in [8] of 3. For the same compound, the IC50 in series [3] amounted to 4.3 µM. Moreover, in series [4], the MIC was determined as 0.099 µM (≈ 0.0452 µg/mL). In addition, the CLhep predicted in series [5] is 16 mL/min/kg.

In the case of `C/C(=N/O)c1cccc(C(C)(C)NC(=O)Nc2ccc(Cl)c(C(=O)N(C)C)c2)c1`, in series [20], the minimum inhibitory concentration (MIC) worked out at 16 µM (≈ 6.67 µg/mL).

For `C[C@@H](Oc1ccc2c(=O)cc3n(c2c1)CCOC3)c1cncc(-c2nc(C#N)c[nH]2)c1`, in series [8], the logD was 2.1. For the same compound, in [3], the IC50 was > 10 µM. In series [4], the MIC is 0.39 µM (≈ 0.161 µg/mL). For the same compound, the CLhep predicted in [5] was 5.5 mL/min/kg.

`C[C@@H](Oc1cccc(-c2ccn[nH]2)c1)c1cncc(-c2nc(Cl)c[nH]2)c1` registered an IC50 in series [3] of 0.32 µM. The MIC in series [4] worked out at 3.1 µM (≈ 1.13 µg/mL). For the same compound, the CLhep predicted in series [5] was 16 mL/min/kg.

Take `C[C@@H](Oc1cc(-c2ccn[nH]2)cc(N2CCOCC2)c1)c1cncc(-c2nc(Cl)c[nH]2)c1`: the minimal inhibitory concentration (MIC) in [4] is 0.18 µM (≈ 0.0812 µg/mL). In [5], the CLhep predicted is 16 mL/min/kg.

Compound `C[C@@H](Oc1ccc2c(=O)cc3n(c2c1)CCOC3)c1cncc(-n2ccc(C#N)n2)c1` showed a logD in series [8] of 1.7. In addition, in [4], the MIC is 0.18 µM (≈ 0.0744 µg/mL). Further, in series [5], the CLhep predicted is 11 mL/min/kg.

In series [9], `C[C@H](Nc1ccc2ncc3c(c2c1)CCOC3)C(=O)Nc1ccc(Cl)nc1` registered a clearance of 132 mL/min/kg. For the same compound, the minimum inhibitory concentration (MIC) in series [4] was found to be 0.035 µM (≈ 0.0134 µg/mL); in series [19], 0.058 µM (≈ 0.0222 µg/mL). For the same compound, in series [5], the CLhep predicted is 16 mL/min/kg.

In series [8], `C[C@@H](Oc1ccc2c(=O)cc3n(c2c1)CCOC3)c1cc(-n2ccc(C(F)(F)F)n2)cnn1` had a logD of 2.1. Besides, the IC50 in [3] is > 10 µM. In addition, the MIC in [4] was 0.58 µM (≈ 0.265 µg/mL). Further, the CLhep predicted in series [5] was 7 mL/min/kg.

The compound `C[C@@H](Oc1ccc2c(=O)cc3n(c2c1)CCOC3)c1cncc(-n2ccc(Cl)n2)c1` yielded a logD in series [8] of 2.8. Moreover, in series [3], the half-inhibitory concentration (IC50) is > 10 µM. In series [4], the MIC is 0.091 µM (≈ 0.0385 µg/mL). In addition, the CLhep predicted in series [5] was 16 mL/min/kg.

For `C[C@@H](Oc1ccc2c(=O)cc3n(c2c1)CCOC3)c1cc(-n2ccc(OC(F)F)n2)cnn1`, in series [8], the logD worked out at 1.6. Also, in [3], the IC50 was > 10 µM. In series [4], the MIC worked out at 0.29 µM (≈ 0.132 µg/mL). For the same compound, the inhibition at 10 µM in series [15] was determined as 70%. The CLhep predicted in series [5] is < 3.9 mL/min/kg.

`C[C@@H](Oc1ccc2ncc(CO)cc2c1)c1cncc(-c2nc(Cl)c[nH]2)c1`: in [3], the IC50 amounted to 2.1 µM. Also, in series [4], the MIC was found to be 0.007 µM (≈ 0.00267 µg/mL). Besides, the CLhep predicted in [5] was 12 mL/min/kg.

`C[C@@H](Oc1ccc2c(=O)cc3n(c2c1)CCOC3)c1cncc(-n2ccc(C(F)(F)F)n2)c1` registered a logD in series [8] of 3.1. The half-inhibitory concentration (IC50) in [3] is > 10 µM. The MIC in series [4] turned out to be 0.29 µM (≈ 0.132 µg/mL). For the same compound, the CLhep predicted in series [5] was 18 mL/min/kg.

As for `CC(Oc1ccc2c(=O)cc3n(c2c1)CCOC3)c1cncc(-c2nc(Cl)c[nH]2)c1` (racemic), in [8], the logD is 2.2. This compound yielded an IC50 in series [3] of 3.7 µM. Besides, in series [4], the MIC is 0.12 µM (≈ 0.0507 µg/mL). For the same compound, in series [5], the CLhep predicted is 13 mL/min/kg.

Source of the values: ChEMBL document CHEMBL6109038, “Discovery of potent dihydro-oxazinoquinolinone inhibitors of GuaB for the treatment of tuberculosis” (Bioorg Med Chem Lett, 2025).
